Patent US20100113530A1, “S1P LYASE INHIBITORS FOR THE TREATMENT OF CEREBRAL MALARIA” (priority 2008, published 2010)

Tests used:
CD8+ T cells = assay: Cerebral malaria model: flow cytometry of tail vein blood for B and T cell levels; type: in vivo, C56B1/6 mice; conditions: first dose one day before infection, blood taken 24 h after first dose, FIG. 1
Description: (§1) FIGS. 1 and 2 show results of an experiment using three groups of 10 female C56B1/6 mice. The mice in all three groups were infected with 1 million parasites (P. berghei ANKA) i.p. in 500 μl of media. The first group was the control group. The S1P lyase inhibitor (E)-1-(4-((1R,2S,3R)-1,2,3,4-tetrahydroxybutyl)-1H-imidazol-2-yl)-ethanone oxime was administered i.p. (100 mg/kg) to the mice in the second group, and was administered by gavage (100 mg/kg) to the mice in the third group. The drug was administered daily, and was first administered one day before infection.
(§2) Twenty four hours after the drug was first administered, tail vein blood was taken from the mice, and flow cytometry analysis was used to assess the levels of B and T cells, using antibodies to CD3, CD4, CD8 and CD19. The animals were monitored daily for body weight, hematocrit, and parasitaemia, and twice daily for survival.

P. berghei ANKA = assay: Cerebral malaria model: survival of infected mice; type: in vivo, C56B1/6 mice; conditions: first dose one day before infection, FIG. 2
Description: as §1, §2

C/C(=N\O)c1nc([C@@H](O)[C@H](O)[C@H](O)CO)c[nH]1 [(E)-1-(4-((1R,2S,3R)-1,2,3,4-tetrahydroxybutyl)-1H-imidazol-2-yl)-ethanone oxime]
CD8+ T cells as compared to untreated control group (CD8+ T cells; gavage 100 mg/kg daily): decreased CD8+ T cells | CD8+ T cells as compared to untreated control group (CD8+ T cells; i.p. 100 mg/kg daily): decreased CD8+ T cells | survival as compared to control group (P. berghei ANKA; gavage 100 mg/kg daily): lived significantly longer | survival as compared to control group (P. berghei ANKA; i.p. 100 mg/kg daily): lived significantly longer
